Measured values taken from patent US12016939B2, “Skin treatment methods and compositions for transdermal delivery of active agents” (Topix Pharmaceuticals, Inc., priority 2020, dated 2024).

Key:
[1] = system: photoaged females; assay: Subject overall clinical improvement from baseline, 5-point scale; format: in vivo, human; settings: after 12 weeks; scale 1=much improved to 5=worse
Source text: (§1) The dermatologist-investigator and subjects assessed the following facial efficacy parameters: overall severity of photodamage, dryness, lack of tactile smoothness, lack of visual smoothness, lack of softness, lack of luminosity, lack of radiance, lack of firmness, poor skin texture, fine facial wrinkles, crow's feet, dyschromia, and crepey cheek skin texture. All assessments were graded on a 5-point ordinal scale (0=none, 1=minimal, 2=mild, 3=moderate, 4=severe). […] The investigator and subjects referred to baseline images (front, right and left side images) of the subjects in completing this evaluation.

[2] = system: photoaged females; parameters: species or system human; settings: in vivo
Source text: Clinical photography was captured at each office visit using visible light of the central, right, and left face with a VISIA CR43 camera system (Canfield Scientific, NJ). Noninvasive assessments for barrier function in the form of transepidermal water loss (TEWL) measurements were taken from the left face using Evaporimeter, Cyberderm, Broomall, PA
TEWL (Evaporimeter, Cyberderm, Broomall, PA) measurements were taken at baseline, week 8, and week 12. […] TEWL increase was 16% lower in the retinol group as compared to the tretinoin group.

[3] = system: photoaged females; assay: Investigator efficacy: facial skin appearance parameters graded on 5-point ordinal scale; format: in vivo, human; settings: longitudinal intragroup
Source text: as §1
(§2) Along with descriptive statistics (means, standard deviations, and percentages), investigator ordinal nonparametric data was analyzed using the Wilcoxon signed rank test and sign test for paired comparison at different time points within and between groups. Change was considered significant at a p-value of less than or equal to 0.05.
The investigator graded facial skin appearance parameters using a 5-point ordinal scale (0=none, 1=minimal, 2=mild, 3=moderate, 4=severe) at baseline (visit 1), week 4 (visit 2), and week 8 (visit 3), and week 12 (visit 4).

[4] = system: photoaged females; assay: Adverse experiences and discontinuations in the clinical study
Source text: A single-site, double-blind controlled comparative study enrolled 45 photoaged females ages 35-65, Fitzpatrick skin types I-IV, with moderate wrinkling. Subjects who used facial retinoids within 3 months of screening, and/or facial alpha-hydroxy acids within 1 month were excluded. Subjects were randomized 2:1 into the following groups:
The 0.25% retinal serum was used twice weekly for week 1, then every other night for week 2, then every night for weeks 3 and 4. The Test Moisturizer (Lipid Replenishing Cream, TOPIX Pharmaceuticals, Inc, Amityville, NY) was placed on top of the retinal serum at each nightly application and every morning.
Cell 2: 15 subjects applied 0.025% tretinoin cream for 4 weeks. The 0.025% tretinoin cream was used twice weekly for the week 1, then every other night for week 2, then every night for weeks 3 and 4. Test Moisturizing cream (CeraVe Moisturizing Cream, L'Oreal, NY) was placed on top of the tretinoin cream (Ortho Dermatologies, NJ) at each application and every morning.

[5] = system: photoaged females; assay: Subject efficacy: self-assessed photodamage parameters, 5-point ordinal scale; format: in vivo, human
Source text: as §1, §2
Subjects assessed their skin appearance across various photodamage parameters using a 5-pointordinal scale (0=none, 1=minimal, 2=mild, 3=moderate, 4=severe) at baseline, week 4, week 8, and week 12.

With `CC1=C(/C=C/C(C)=C/C=C/C(C)=C/C(=O)O)C(C)(C)CCC1` [tretinoin] the “subject overall clinical improvement from baseline, on average reported” value [1] was “much-improved”, the “increase in TEWL” value ([2]; female, human, 12 weeks) was 104% and the “barrier damage (TEWL), intragroup” value [2] was “induced barrier damage”. The “luminosity, investigator” value ([3]; week 4) was “statistically significant improvement”, the “radiance, investigator” value ([3]; week 4) was “statistically significant improvement” and the “softness, investigator” value ([3]; week 4) was “statistically significant improvement”. For the same compound, the “tactile smoothness, investigator” value ([3]; week 4) was “statistically significant improvement”, the “visual smoothness, investigator” value ([3]; week 4, retinol P=0.031) was “no significance” and the “firmness, investigator” value ([3]; week 8) was “statistical significance”. The “luminosity, investigator” value ([3]; week 8) was “statistical significance”, the “overall photoaging appearance, investigator” value ([3]; week 8) was “statistical significance” and the “radiance, investigator” value ([3]; week 8) was “statistical significance”. For the same compound, the “skin texture, investigator” value ([3]; week 8) was “statistical significance”, the “softness, investigator” value ([3]; week 8) was “statistical significance” and the “tactile smoothness, investigator” value ([3]; week 8) was “statistical significance”. For the same compound, the “visual smoothness, investigator” value ([3]; week 8) was “statistical significance”, the “skin dryness, investigator” value ([3]; week 8, retinol P<0.001) was “not seen” and the “subjects discontinued due to retinoid tolerability issues” value ([4]; 12-week study, Cell 1 30 subjects, Cell 2 15 subjects) was “one”. The serious adverse events ([4]; during the conduct of the study) was “No serious adverse events”, the “subject assessed improvement, intragroup longitudinal” value ([5]; all time points) was “experienced improvement” and the “softness, subject” value ([5]; week 8, intragroup, retinol serum P<0.001) was “not seen until week 8”. The “most parameters, subject” value ([5]; week 12, intragroup) was “statistical significance”.
